From ChEMBL document CHEMBL4118133, “Inhibitory effects of methyl-3,5-di-O-caffeoyl-epi-quinate on RANKL-induced osteoclast differentiation” (Bioorg Med Chem Lett, 2018)
The source made the active and inactive calls. The calls are words filed in the database; no cut-off is given here.

Legend:
BMDM [1] = assay: Inhibition of M-CSF/RANKL-induced osteoclast differentiation in ICR mouse BMDM at 1 uM after 4 days by TRAP staining method relative to control; format: functional; conditions: 96 h
BMDM [2] = assay: Inhibition of M-CSF/RANKL-induced osteoclast differentiation in ICR mouse BMDM at 5 to 10 uM after 4 days by TRAP staining method; format: functional, cell-based
BMDM [3] = assay: Growth inhibition of ICR mouse BMDM up to 10 uM after 3 days by MTT assay; format: cell-based; conditions: 72 h
BMDM [4] = assay: Inhibition of M-CSF/RANKL-induced osteoclast differentiation in ICR mouse BMDM assessed as downregulation of Acp5 mRNA expression at 5 uM by qRT-PCR method; format: functional, cell-based
BMDM [5] = assay: Inhibition of M-CSF/RANKL-induced osteoclast differentiation in ICR mouse BMDM assessed as downregulation of Ctsk mRNA expression at 5 uM by qRT-PCR method; format: functional, cell-based
BMDM [6] = assay: Inhibition of M-CSF/RANKL-induced osteoclast differentiation in ICR mouse BMDM assessed as downregulation of Dcstamp mRNA expression at 5 uM by qRT-PCR method; format: functional, cell-based
BMDM [7] = assay: Inhibition of M-CSF/RANKL-induced osteoclast differentiation in ICR mouse BMDM assessed as downregulation of Nfatc1 mRNA expression at 5 uM by qRT-PCR method; format: functional, cell-based
BMDM [8] = assay: Inhibition of M-CSF/RANKL-induced osteoclast differentiation in ICR mouse BMDM assessed as downregulation of Nfatc1 expression at 5 uM after 3 days by Western blot method; format: functional, cell-based
BMDM [9] = assay: Inhibition of M-CSF/RANKL-induced osteoclast differentiation in ICR mouse BMDM assessed as decrease in number of cells with nuclear Nfatc1 at 5 uM by rhodamine-conjugated phalloidin/DAPI staining-based immunofluorescence method; format: functional, cell-based
Osteoclast = assay: Effect on bone-resorbing function of osteoclast derived from M-CSF/RANKL-induced ICR mouse BMDM assessed as change in size of resorption pit area at 5 uM after 2 days by hematoxylin staining-based assay; format: functional, cell-based
[10] = molecular target: MAP kinase p38 (Mus musculus) (UniProt P47811+O08911+Q9WUI1+Q9Z1B7); assay: Inhibition of RANKL-induced p38 phosphorylation in ICR mouse BMDM at 5 uM preincubated for 1 hr followed by RANKL stimulation measured after 5 to 30 mins by Western blot method; format: cell-based
BMDM [11] = assay: Inhibition of RANKL-induced ERK phosphorylation in ICR mouse BMDM at 5 uM preincubated for 1 hr followed by RANKL stimulation measured after 5 to 30 mins by Western blot method; format: cell-based
[12] = molecular target: RAC-alpha serine/threonine-protein kinase (Mus musculus) (UniProt P31750); assay: Inhibition of RANKL-induced AKT phosphorylation in ICR mouse BMDM at 5 uM preincubated for 1 hr followed by RANKL stimulation measured after 30 mins by Western blot method; format: cell-based
Chain of RAC-alpha serine/threonine-protein kinase (Mus musculus) (P31750 whole entry): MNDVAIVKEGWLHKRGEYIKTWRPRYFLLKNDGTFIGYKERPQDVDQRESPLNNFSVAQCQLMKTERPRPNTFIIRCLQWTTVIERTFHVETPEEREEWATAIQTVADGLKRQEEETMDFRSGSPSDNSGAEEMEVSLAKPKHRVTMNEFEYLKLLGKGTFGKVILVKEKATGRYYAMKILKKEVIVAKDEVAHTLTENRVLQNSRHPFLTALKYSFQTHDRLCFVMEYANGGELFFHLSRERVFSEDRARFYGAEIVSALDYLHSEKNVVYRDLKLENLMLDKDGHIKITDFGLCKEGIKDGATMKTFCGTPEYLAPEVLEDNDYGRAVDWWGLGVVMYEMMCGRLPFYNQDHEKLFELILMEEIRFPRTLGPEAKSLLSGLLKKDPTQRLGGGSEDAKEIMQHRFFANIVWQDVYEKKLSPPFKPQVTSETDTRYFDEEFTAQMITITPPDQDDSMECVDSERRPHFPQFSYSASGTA

BMDM [13] = assay: Inhibition of RANKL-mediated decrease in Irf8 mRNA expression in ICR mouse BMDM at 5 uM by qRT-PCR method; format: functional, cell-based
BMDM [14] = assay: Inhibition of RANKL-mediated decrease in Bcl6 mRNA expression in ICR mouse BMDM at 5 uM by qRT-PCR method; format: functional, cell-based
BMDM [15] = assay: Inhibition of RANKL-mediated decrease in Mafb mRNA expression in ICR mouse BMDM at 5 uM by qRT-PCR method; format: functional, cell-based

How did the inhibition at 1 µM (BMDM [1]) turn out when `COC(=O)[C@]1(O)C[C@@H](OC(=O)/C=C/c2ccc(O)c(O)c2)[C@H](O)[C@H](OC(=O)/C=C/c2ccc(O)c(O)c2)C1` was run?
Its inhibition at 1 µM is 78%.

What about the inhibition (BMDM [2]) of the same compound?
Its inhibition is “Active”.

And the “growth inhibition (GI)” value (BMDM [3])?
Its value is “Non-Toxic”.

What about the inhibition (BMDM [4]) of the same compound?
The inhibition was “Active”.

And the inhibition (BMDM [5])?
The inhibition was “Active”.

And the inhibition (BMDM [6])?
The inhibition was “Active”.

What about the inhibition (BMDM [7]) of the same compound?
Its inhibition is “Active”.

And the inhibition (BMDM [8])?
Its inhibition is “Active”.

And the inhibition (BMDM [9])?
Its inhibition is “Active”.

What about the Activity (Osteoclast) of the same compound?
The Activity was “inactive”.

What about the inhibition [10] of the same compound?
Its inhibition is “Active”.

And the inhibition (BMDM [11])?
Its inhibition is “Active”.

What about the inhibition [12] of the same compound?
Its inhibition is “Active”.

And the inhibition (BMDM [13])?
Its inhibition is “Active”.

And the inhibition (BMDM [14])?
The inhibition was “Active”.

And the inhibition (BMDM [15])?
Its inhibition is “Active”.
